The structures appear in SMILES notation.

What all share (format): functional, cell-based
In assay [1] the target is T1, Metabotropic glutamate receptor 5 (Homo sapiens, UniProt P41594). Nature of the assay: The compound was tested for inhibitory effect on second messenger formation in BHK cells expressing mGluR5a.
Assay [2] has as its target T1, Metabotropic glutamate receptor 5. Nature of the assay: The compound was tested for effect on second messenger formation in BHK cells expressing mGluR5a.
In assay [3] the target is T2, Metabotropic glutamate receptor 4 (Homo sapiens, UniProt Q14833). Put plainly: The compound was tested for inhibitory effect on second messenger formation in BHK cells expressing mGluR4a.
T2 sequence (Q14833 whole entry): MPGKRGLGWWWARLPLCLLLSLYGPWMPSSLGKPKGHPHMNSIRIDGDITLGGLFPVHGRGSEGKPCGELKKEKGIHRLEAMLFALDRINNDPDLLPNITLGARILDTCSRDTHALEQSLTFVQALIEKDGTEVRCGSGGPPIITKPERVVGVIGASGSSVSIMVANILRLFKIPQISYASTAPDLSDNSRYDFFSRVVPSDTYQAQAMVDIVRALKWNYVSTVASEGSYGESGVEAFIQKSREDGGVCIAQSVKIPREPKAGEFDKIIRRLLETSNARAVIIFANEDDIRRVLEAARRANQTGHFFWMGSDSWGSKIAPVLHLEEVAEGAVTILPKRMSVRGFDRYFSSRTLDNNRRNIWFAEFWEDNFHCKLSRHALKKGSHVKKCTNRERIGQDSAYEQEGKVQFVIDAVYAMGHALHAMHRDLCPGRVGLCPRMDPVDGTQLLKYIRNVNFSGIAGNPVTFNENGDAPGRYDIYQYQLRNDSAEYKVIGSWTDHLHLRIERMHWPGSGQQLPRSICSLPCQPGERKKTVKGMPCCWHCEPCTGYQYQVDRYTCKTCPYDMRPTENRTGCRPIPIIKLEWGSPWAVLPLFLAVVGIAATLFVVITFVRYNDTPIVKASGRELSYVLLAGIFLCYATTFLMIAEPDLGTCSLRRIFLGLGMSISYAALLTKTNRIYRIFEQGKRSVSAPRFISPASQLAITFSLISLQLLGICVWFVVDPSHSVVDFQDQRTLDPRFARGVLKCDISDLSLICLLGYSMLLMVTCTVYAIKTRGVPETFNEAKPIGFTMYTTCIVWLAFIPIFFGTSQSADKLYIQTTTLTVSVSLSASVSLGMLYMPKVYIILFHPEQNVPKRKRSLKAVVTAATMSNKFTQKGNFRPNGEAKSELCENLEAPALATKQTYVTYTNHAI
Assay [4] addresses T3, Metabotropic glutamate receptor 2 (Homo sapiens, UniProt Q14416). Put plainly: The compound was tested for inhibitory effect on second messenger formation in BHK cells expressing mGluR2.
In assay [5] the target is T2, Metabotropic glutamate receptor 4. Nature of the assay: The compound was tested for effect on second messenger formation in BHK cells expressing mGluR4a.
The target in assay [6] is T1, Metabotropic glutamate receptor 5. Put plainly: The compound was tested for effect on second messenger formation in BHK cells expressing mGluR5a at half maximal concentration.
For assay [7], the target named is T3, Metabotropic glutamate receptor 2. Put plainly: The compound was tested for effect on second messenger formation in BHK cells expressing mGluR2.

T3 sequence (Q14416 whole entry): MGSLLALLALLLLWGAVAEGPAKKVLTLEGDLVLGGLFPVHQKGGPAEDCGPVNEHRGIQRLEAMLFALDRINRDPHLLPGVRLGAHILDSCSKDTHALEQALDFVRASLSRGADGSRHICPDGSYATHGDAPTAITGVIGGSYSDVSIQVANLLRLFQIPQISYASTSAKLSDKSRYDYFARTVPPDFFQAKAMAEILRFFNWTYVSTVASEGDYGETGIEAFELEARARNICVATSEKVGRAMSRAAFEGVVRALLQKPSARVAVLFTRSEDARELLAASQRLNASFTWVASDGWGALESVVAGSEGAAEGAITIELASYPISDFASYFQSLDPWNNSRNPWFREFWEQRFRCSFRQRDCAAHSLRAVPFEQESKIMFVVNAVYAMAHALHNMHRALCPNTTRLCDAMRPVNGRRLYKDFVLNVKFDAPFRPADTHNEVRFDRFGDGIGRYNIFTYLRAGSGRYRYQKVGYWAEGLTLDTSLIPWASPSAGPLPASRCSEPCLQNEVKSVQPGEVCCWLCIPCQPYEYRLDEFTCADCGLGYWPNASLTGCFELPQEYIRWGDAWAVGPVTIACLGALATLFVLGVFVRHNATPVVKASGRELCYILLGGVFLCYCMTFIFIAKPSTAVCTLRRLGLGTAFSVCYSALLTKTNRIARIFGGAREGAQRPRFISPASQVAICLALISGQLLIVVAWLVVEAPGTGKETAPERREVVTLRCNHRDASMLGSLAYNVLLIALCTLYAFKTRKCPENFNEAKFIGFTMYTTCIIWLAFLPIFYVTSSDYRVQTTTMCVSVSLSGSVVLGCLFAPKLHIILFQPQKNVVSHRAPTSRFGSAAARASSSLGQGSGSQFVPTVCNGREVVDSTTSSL
T1 sequence (P41594 whole entry): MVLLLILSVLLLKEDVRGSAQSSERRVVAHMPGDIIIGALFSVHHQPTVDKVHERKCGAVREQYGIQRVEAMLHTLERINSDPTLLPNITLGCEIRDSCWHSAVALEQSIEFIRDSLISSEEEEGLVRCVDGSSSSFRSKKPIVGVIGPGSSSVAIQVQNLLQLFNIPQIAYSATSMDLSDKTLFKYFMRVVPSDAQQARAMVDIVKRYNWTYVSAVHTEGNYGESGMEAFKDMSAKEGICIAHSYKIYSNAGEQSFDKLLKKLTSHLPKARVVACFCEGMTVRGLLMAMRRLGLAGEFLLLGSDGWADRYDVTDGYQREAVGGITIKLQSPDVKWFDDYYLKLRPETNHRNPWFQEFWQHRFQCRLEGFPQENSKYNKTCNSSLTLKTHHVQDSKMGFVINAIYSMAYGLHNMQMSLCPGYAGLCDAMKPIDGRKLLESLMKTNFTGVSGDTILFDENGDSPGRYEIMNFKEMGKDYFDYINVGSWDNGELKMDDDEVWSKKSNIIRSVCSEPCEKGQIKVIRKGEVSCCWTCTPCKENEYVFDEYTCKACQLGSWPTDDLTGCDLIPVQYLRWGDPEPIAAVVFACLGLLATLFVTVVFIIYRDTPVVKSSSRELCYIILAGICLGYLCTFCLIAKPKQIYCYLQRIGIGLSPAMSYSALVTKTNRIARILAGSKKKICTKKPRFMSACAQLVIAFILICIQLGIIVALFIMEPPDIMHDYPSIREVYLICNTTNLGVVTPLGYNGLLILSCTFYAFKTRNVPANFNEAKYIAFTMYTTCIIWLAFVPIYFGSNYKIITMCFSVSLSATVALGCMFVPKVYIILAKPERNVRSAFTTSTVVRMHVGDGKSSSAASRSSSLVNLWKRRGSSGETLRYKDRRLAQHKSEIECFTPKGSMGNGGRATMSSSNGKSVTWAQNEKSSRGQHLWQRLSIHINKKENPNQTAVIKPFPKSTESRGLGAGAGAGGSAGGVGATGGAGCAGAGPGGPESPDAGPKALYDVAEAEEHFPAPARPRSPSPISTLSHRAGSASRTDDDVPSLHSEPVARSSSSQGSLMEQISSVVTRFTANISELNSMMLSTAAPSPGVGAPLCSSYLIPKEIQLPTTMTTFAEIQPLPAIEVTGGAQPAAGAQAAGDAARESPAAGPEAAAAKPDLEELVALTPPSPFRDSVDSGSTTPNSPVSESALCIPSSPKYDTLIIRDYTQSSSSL

Take `N[C@H](C(=O)O)C12CC(C(=O)O)(C1)C2`: the IC50 in assay [1], in assay [3] and in assay [4] was greater than 300 µM in each case. Also, the EC50 (commonly the concentration giving half of the maximal effect) in assay [2] was greater than 300 µM; in assay [5], greater than 300 µM; in assay [6], 103 µM; in assay [7], greater than 300 µM.
For the molecule `N[C@@H](C(=O)O)C12CC(C(=O)O)(C1)C2`, the IC50 in assay [1], in assay [3] and in assay [4] was greater than 300 µM in each case. In addition, the EC50 in assay [2], in assay [5] and in assay [7] was greater than 300 µM each time.

Source of the values: ChEMBL document CHEMBL1129243, “(S)-(+)-2-(3'-carboxybicyclo[1.1.1]pentyl)-glycine, a structurally new group I metabotropic glutamate receptor antagonist” (J Med Chem, 1996).
